EP4799624A2 (priority 2021, dated 2023)
Values after ≈ are worked out from the molar mass of the structure shown. Read-outs that look alike come from different tables or passages of the source.

Columns and labels:
[1] = test system: SARS-CoV-2; conditions: for activity in the HeLa-ACE2 cell-based SARS-CoV-2 assay: 35 ActivPred compounds tested; for Nh (Hill) coefficient: dose curves fitted with the four parameter Hill Equation
[2] = test system: SARS-CoV-2; experiment: microbe, parasite or virus in culture
[3] = values compared in Example 2; cited from earlier work
[4] = test system: SARS-CoV-2; conditions: Day 4, cited from earlier work
[5] = test system: COVID-19; conditions: ReFRAME study A00473; cited from earlier work
[6] = rat, in vivo
[7] = test system: SARS-CoV-2/WA1; assay type: cell-based, SARS-CoV-2 isolate USA-WA1/2020; conditions: Severe acute respiratory syndrome coronavirus 2, HeLa-ACE2, read-out: SARS-CoV-2 IC50 value
[8] = human liver slices and microsomes; cited from earlier work
[9] = rat and monkey studies; cited from earlier work
[10] = in vivo; conditions: rat, po, 1000 mg/kg
[11] = test system: A/WSN/33; experiment: Influenza antiviral assay (IF-based) in A549 cells; assay type: cell-based, H1N1 influenza A virus; conditions: Influenza A virus, A549, 24 h
[12] = for adverse reactions / clinical signs: PO 50 and 250 mg/kg, single and 5 days, female 129S1 mice; for Mean: mean of 3 mice (± SD in Table 16); for AUC∞: extrapolated to ∞
[13] = ReFRAME study A00511; cited from earlier work
[14] = in vivo, cited from earlier work
[15] = test system: SARS-CoV-2; conditions: cited from earlier work
[16] = range for all doses (10-200 mg), human plasma, cited from earlier work
[17] = single oral doses 1-200 mg; cited from earlier work
[18] = test system: SARS-CoV-2; conditions: same methods as used in this study; cited from earlier work
[19] = test system: Ebola VLP entry; conditions: cited from earlier work
[20] = Severe acute respiratory syndrome coronavirus 2, HeLa-ACE2, 24 h
[21] = lung, 250 mg/kg PO five consecutive days (Group 2, MD)
[22] = plasma, 50 mg/kg PO five consecutive days (Group 1, MD)
[23] = plasma, 50 mg/kg PO single dose (Group 1, SD)
[24] = plasma, 50 mg/kg PO single dose (Group 1, SD), 50 mg/kg
[25] = plasma, 250 mg/kg PO five consecutive days (Group 2, MD)
[26] = plasma, 250 mg/kg PO single dose (Group 2, SD)

Nc1ncnc2c1nc(Cl)n2[C@@H]1O[C@@H]2COP(=O)(O)O[C@H]2[C@H]1O [tocladesine]
activity in the HeLa-ACE2 cell-based SARS-CoV-2 assay [1]: demonstrated activity

Cc1cccc(/C=N/Nc2cc(N3CCOCC3)nc(OCCc3ccccn3)n2)c1 [apilimod, reference compound]
Emax ([2]; Severe acute respiratory syndrome coronavirus 2, HeLa-ACE2, read-out: maximal efficacy): 85 to 90% | increase in EC50 from MOI=1 to MOI=26 [1]: 3.7 fold

CCC(CC)COC(=O)[C@H](C)N[P@](=O)(OC[C@H]1O[C@@](C#N)(c2ccc3c(N)ncnn23)[C@H](O)[C@@H]1O)Oc1ccccc1 [Remdesivir, reference compound]
EC50 [2, 20]: 130 nM | increase in EC50 from MOI=1 to MOI=26 [1]: 2.7 fold | t ½ [3]: 1 h

CC(C)(C)[C@H](NC(=O)C(F)(F)F)C(=O)N1C[C@H]2[C@@H]([C@H]1C(=O)N[C@H](C#N)C[C@@H]1CCNC1=O)C2(C)C [Nirmatrelvir]
log reduction in viral load ([4]; 300 mg/kg): 1.4 log | reduction in viral load ([4]; 1000 mg/kg BID): 1.91 log10 CCID50/mL | log reduction in viral load ([4]; 1000 mg/kg): 1.9 log

Cc1c(-c2ccc(O)cc2)n(Cc2ccc(OCCN3CCCCC3)cc2)c2ccc(O)cc12 [Pipendoxifene, 2-(4-hydroxyphenyl)-3-methyl-1-[[4-(2-piperidin-1-ylethoxy)phenyl]methyl]indol-5-ol]
result in COVID-19 Cytopathic Effect (CPE) Assay [5]: INACTIVE | Cmax [6]: 311 1 42 ng/mL | Lung C24h exceeding the IC50 value [6]: 5.4 fold | plasma t1/2 ([6]; po): 4.71 to 6.06 h | AUClast ± SE ([6]; po, 250 mg/kg): 3515 ± 980 ng·h/mL | AUClast ± SE ([6]; po, 750 mg/kg): 5260 ± 1970 ng·h/mL | IC50 [7]: 0.328 µg/mL (≈ 0.718 µM) | primary human metabolite [8]: the same indole glucuronide as found in the preclinical models | primary metabolite [9]: primarily metabolized to an indole glucuronide | concentration at 6 h [10]: 501 ng/mL | IC50 [11]: 7.49 µM | EC90 ([2]; Severe acute respiratory syndrome coronavirus 2, HeLa-ACE2): 14.3 µM | EC10 [2, 20]: 5.01 µM | EC50 [2, 20]: < 9600 nM | EC90 ([2]; Severe acute respiratory syndrome coronavirus 2, HeLa-ACE2, calculated with the Hill equation (Equation I) from nH 4 and EC10): 15 µM | EC90 ([2]; Severe acute respiratory syndrome coronavirus 2, HeLa-ACE2, read-out: EC90 range, range from Equations I and II): 14.3 to 15 µM | Average plasma concentration ([12]; Group 2, MD (multiple, 5-day, dose) 250 mg/kg oral, 8.0 hr): 575 ± 194 ng/mL | adverse reactions / clinical signs [12]: no adverse events at doses up to 250mg/kg | adverse reactions / clinical signs ([12]; listed as pipendoxifene): No adverse reactions were observed | Conc. ([12]; lung tissue, individual mice, 50 mg/kg PO single dose, 8.0 hr, 50 mg/kg, 480 min): 7840 ng/g | Mean ([12]; lung tissue, 50 mg/kg PO five consecutive days, 8.0 hr, 50 mg/kg, 480 min): 5613 ± 1602 ng/g | Mean ([12]; lung tissue, 50 mg/kg PO single dose, 4.0 hr, 50 mg/kg, 240 min): 8310 ± 630 ng/g | Mean ([12]; lung tissue, 250 mg/kg PO five consecutive days, 4.0 hr, 250 mg/kg, 240 min): 39000 ± 15321 ng/g | Mean ([12]; lung tissue, 250 mg/kg PO single dose, 8.0 hr, 250 mg/kg, 480 min): 24733 ± 17321 ng/g | tmax ([12]; lung, 50 mg/kg PO five consecutive days (Group 1, MD)): 8.0 h | MRTlast [12, 21]: 7.22 h | tmax [12, 21]: 4.0 h | tmax ([12]; lung, 250 mg/kg PO single dose (Group 2, SD)): 8.0 h | plasma t1/2 ([12]; mouse, in vivo, po): 2.36 to 3.96 h | MRTlast [12, 22]: 7.10 h | t1/2 [12, 22]: 2.58 h | tmax [12, 22]: 6.0 h | AUClast (hr·ng/mL) ± SE ([12]; plasma, 50 mg/kg PO five consecutive days (Group 1, MD), 50 mg/kg): 1391 ± 55 ng·h/mL | AUC∞ [12, 22]: 1396 ng·h/mL | MRTlast [12, 23]: 6.95 h | t1/2 [12, 23]: 2.36 h | tmax [12, 23]: 2.0 h | AUClast (hr·ng/mL) ± SE [12, 24]: 1600 ± 115 ng·h/mL | Cmax (ng/mL) ± SE [12, 24]: 179 ± 21 ng/mL | AUC∞ [12, 23]: 1602 ng·h/mL | t1/2 [12, 25]: 2.52 h | tmax [12, 25]: 6.0 h | AUClast (hr·ng/mL) ± SE ([12]; plasma, 250 mg/kg PO five consecutive days (Group 2, MD), 250 mg/kg): 11628 ± 1191 ng·h/mL | AUC∞ [12, 25]: 11664 ng·h/mL | MRTlast [12, 26]: 8.86 h | t1/2 [12, 26]: 3.96 h | tmax [12, 26]: 6.0 h | Cmax (ng/mL) ± SE ([12]; plasma, 250 mg/kg PO single dose (Group 2, SD), 250 mg/kg): 1020 ± 693 ng/mL | AUC∞ [12, 26]: 10461 ng·h/mL | Mean ([12]; plasma, 50 mg/kg PO five consecutive days, 1.0 hr, 50 mg/kg, 60 min): 56.0 ± 20.7 ng/mL | Mean ([12]; plasma, 50 mg/kg PO single dose, 2.0 hr, 50 mg/kg, 120 min): 179 ± 37 ng/mL | Mean ([12]; plasma, 250 mg/kg PO five consecutive days, 8.0 hr, 250 mg/kg, 480 min): 575 ± 194 ng/mL | Mean ([12]; plasma, 250 mg/kg PO single dose, 6.0 hr, 250 mg/kg, 360 min): 1020 ± 1200 ng/mL | result in SARS CoV-2 CPE Cytotoxicity Assay [13]: INACTIVE | dose safely tolerated ([14]; human): up to 200 mg/daily | dose safely tolerated ([14]; mouse): at least 20 mg/kg/day | result in SARS-CoV-2/HeLa-ACE2 HCI assay - % infected cells [15]: INACTIVE | EC50 [1]: 8.24 µM | activity in the HeLa-ACE2 cell-based SARS-CoV-2 assay [1]: demonstrated activity | Nh (Hill) coefficient [1]: 4 | EC50 ([1]; listed as pipendoxifene): 8.42 µM | mean terminal t1/2 [16]: 15.8 to 27.3 h | mean terminal t1/2 ([16]; listed as pipendoxifene): 15.8 to 27.3 h | tolerability [17]: well tolerated with only mild transient adverse events observed at all doses | t ½ [3]: 15.8 to 27.3 h

Cc1c2c(nn1C)CSCc1cc(n(C)n1)CSc1cc(c3ccccc3c1)OCCCc1c(C(=O)O)n(C)c3c-2c(Cl)ccc13 [AZD-5991]
activity in the HeLa-ACE2 cell-based SARS-CoV-2 assay [1]: demonstrated activity

Cc1c(-c2ccc(O)cc2)n(Cc2ccc(OCCN3CCCCCC3)cc2)c2ccc(O)cc12 [Bazedoxifene, reference compound]
dose safely tolerated ([14]; human): 20 mg/day | dose safely tolerated ([14]; rat): 100 mg/kg/day

COc1ccc(C[C@H](N)C(=O)N[C@H]2[C@@H](O)[C@H](n3cnc4c(N(C)C)ncnc43)O[C@@H]2CO)cc1 [puromycin, reference compound]
EC50 ([2]; Severe acute respiratory syndrome coronavirus 2, HeLa-ACE2, […], average ± sem of 5 independent experiments): 547 ± 27 nM

CNCc1ccc(-c2cc(-c3nc(-c4ccc(S(=O)(=O)C(C)C)cc4)cnc3N)on2)cc1 [Berzosertib, reference compound]
activity in the HeLa-ACE2 cell-based SARS-CoV-2 assay [1]: demonstrated activity | Nh (Hill) coefficient [1]: 1.485

COc1cc(Cl)cc(C(C)Nc2cc(N3CCNCC3)ccc2S(C)(=O)=O)c1OC.Cl (stereo not drawn) [PRX-07034]
activity in the HeLa-ACE2 cell-based SARS-CoV-2 assay [1]: demonstrated activity

O=C(c1ccc(OCCN2CCCCC2)cc1)c1c(-c2ccc(O)cc2)sc2cc(O)ccc12 [raloxifene]
EC50 [18]: 4.13 µM | SI ([19]; Ebola VLP entry): > 10 | IC50 ([19]; speculated active compounds, read-out: IC50, block of Ebola VLP entry in vitro): < 10 µM
